Values quoted from earlier work, collected in patent US8128958B2, “Sustained release pharmaceutical composition” (Astellas Pharma Inc., priority 2003, dated 2012).
Counter-ions that a name gives are not always drawn.

Tests used:
[1] = not given; remark: listed apart in the source

CCOc1ccccc1OCCN[C@H](C)Cc1ccc(OC)c(S(N)(=O)=O)c1 [tamsulosin hydrochloride, (R)(−)-5-[2-[[2-(o-ethoxyphenoxy)ethyl]-amino]propyl]-2-methoxybenzenesulfonamide]
Cmax and AUC versus dose (0.1 to 0.6 mg orally, healthy adult volunteers): increased almost in proportion to the dose administered
day on which plasma concentration profiles reached the steady state (repeatedly administered per os for seven days): 4 days
adverse reactions (including abnormal clinical data) presumably related to the agent ([1]; 104 cases among 4724 cases, research in use upon approval and post marketing surveillance in Japan): 2.2%
frequency of hypotension, postural hypotension, blood pressure, tachycardia and palpitation ([1]; package insert, circulatory area): less than 0.1%
frequency of orthostatic syncope, headache and sleepiness ([1]; package insert, psychoneural area): less than 0.1%
